Reference: patent US20230398130A1, “METHODS AND COMPOSITIONS FOR DIFFERENTIATING STEM CELLS” (Massachusetts Institute of Technology, priority 2020, published 2023)

Key:
ISC-enriched organoids [1] = assay: Primary screen, 384-well 2.5-D organoid differentiation (ENR+CD, 6 days): carbachol-induced lysozyme secretion (LYZ.S); assay type: cell-based, murine; settings: vs plate median; for Dose.FC.LYZ.S (log 2 fold change): primary screen
Description: (§1) High-throughput screening.

ISC-enriched organoids [2] = assay: Primary screen, 384-well 2.5-D organoid differentiation (ENR+CD, 6 days): basal lysozyme secretion (LYZ.NS); assay type: cell-based, murine; settings: for Dose.FC.LYZ.NS (log 2 fold change) / Dose.FC.LYZ.NS (log 2 fold change, basal lysozyme secretion): vs plate median
Description: as §1

ISC-enriched organoids [3] = assay: Primary screen, 384-well 2.5-D organoid differentiation (ENR+CD, 6 days, Target Selective Inhibitor Library, vs whole-plate median): ATP (CellTiter-Glo 3D, CTG); settings: for Dose.FC.CTG (log 2 fold change) / Dose.FC.CTG (log 2 fold change, ATP): vs plate median

Row | Substance | Dose.FC.LYZ.S (log 2 fold change) (ISC-enriched organoids [1]; Dose 0.08 uM) | Dose.FC.LYZ.S (log 2 fold change) (ISC-enriched organoids [1]; Dose 0.40 uM) | Dose.FC.LYZ.S (log 2 fold change) (ISC-enriched organoids [1]; Dose 2.00 uM) | Dose.FC.LYZ.S (log 2 fold change) (ISC-enriched organoids [1]; Dose 10.00 uM) | Z.LYZ.NS (standard z score) (ISC-enriched organoids [2]; Dose 0.08 uM, primary screen) | Dose.FC.LYZ.NS (log 2 fold change) (ISC-enriched organoids [2]; Dose 0.08 uM, primary screen) | Z.LYZ.NS (standard z score) (ISC-enriched organoids [2]; Dose 0.40 uM, primary screen) | Dose.FC.LYZ.NS (log 2 fold change) (ISC-enriched organoids [2]; Dose 0.40 uM, primary screen) | Z.LYZ.NS (standard z score) (ISC-enriched organoids [2]; Dose 2.00 uM, primary screen) | Dose.FC.LYZ.NS (log 2 fold change) (ISC-enriched organoids [2]; Dose 2.00 uM, primary screen) | Z.LYZ.NS (standard z score) (ISC-enriched organoids [2]; Dose 10.00 uM, primary screen) | Dose.FC.LYZ.NS (log 2 fold change) (ISC-enriched organoids [2]; Dose 10.00 uM, primary screen) | Z.CTG (standard z score) (ISC-enriched organoids [3]; Dose 0.08 uM, primary screen) | Dose.FC.CTG (log 2 fold change) (ISC-enriched organoids [3]; Dose 0.08 uM, primary screen) | Z.CTG (standard z score) (ISC-enriched organoids [3]; Dose 0.40 uM, primary screen) | Dose.FC.CTG (log 2 fold change) (ISC-enriched organoids [3]; Dose 0.40 uM, primary screen) | Z.CTG (standard z score) (ISC-enriched organoids [3]; Dose 2.00 uM, primary screen) | Dose.FC.CTG (log 2 fold change) (ISC-enriched organoids [3]; Dose 2.00 uM, primary screen) | Z.CTG (standard z score) (ISC-enriched organoids [3]; Dose 10.00 uM, primary screen) | Dose.FC.CTG (log 2 fold change) (ISC-enriched organoids [3]; Dose 10.00 uM, primary screen) | other results
1 | S3I-201 | 0.033 | 0.157 | −0.004 | −0.052 | 0.445 | 0.051 | 0.527 | 0.061 | 0.212 | 0.024 | −0.143 | −0.016 | 0.766 | 0.321 | 0.382 | 0.160 | 0.188 | 0.079 | −0.334 | −0.140 | –
2 | SN-38 | −0.419 | −0.402 | −0.391 | −0.404 | −2.391 | −0.275 | −2.505 | −0.288 | −2.655 | −0.305 | −2.606 | −0.299 | −1.720 | −0.720 | −2.606 | −1.091 | −2.929 | −1.226 | −2.785 | −1.166 | –
3 | SNS-314 Mesylate | −0.115 | −0.103 | −0.133 | −0.198 | −0.620 | −0.071 | −0.515 | −0.059 | −1.111 | −0.128 | −1.109 | −0.127 | −1.591 | −0.666 | −1.857 | −0.777 | −1.142 | −0.478 | −1.480 | −0.620 | –
4 | VU 0364439 | – | – | – | – | – | – | – | – | – | – | – | – | – | – | – | – | – | – | – | – | Dose.FC.LYZ.S (log 2 fold change, carbachol-induced lysozyme secretion) (ISC-enriched organoids [1]; dose 0.08 uM): 0.108; Dose.FC.LYZ.S (log 2 fold change, carbachol-induced lysozyme secretion) (ISC-enriched organoids [1]; dose 0.40 uM): 0.124; Dose.FC.LYZ.S (log 2 fold change, carbachol-induced lysozyme secretion) (ISC-enriched organoids [1]; dose 2.00 uM): −0.043; Dose.FC.LYZ.S (log 2 fold change, carbachol-induced lysozyme secretion) (ISC-enriched organoids [1]; dose 10.00 uM): −0.038; Z.LYZ.NS (standard z score) (ISC-enriched organoids [2]; dose 0.08 uM): 0.715; Dose.FC.LYZ.NS (log 2 fold change, basal lysozyme secretion) (ISC-enriched organoids [2]; dose 0.08 uM): 0.082; Z.LYZ.NS (standard z score) (ISC-enriched organoids [2]; dose 0.40 uM): 0.099; Dose.FC.LYZ.NS (log 2 fold change, basal lysozyme secretion) (ISC-enriched organoids [2]; dose 0.40 uM): 0.011; Z.LYZ.NS (standard z score) (ISC-enriched organoids [2]; dose 2.00 uM): 0.089; Dose.FC.LYZ.NS (log 2 fold change, basal lysozyme secretion) (ISC-enriched organoids [2]; dose 2.00 uM): 0.010; Z.LYZ.NS (standard z score) (ISC-enriched organoids [2]; dose 10.00 uM): −0.476; Dose.FC.LYZ.NS (log 2 fold change, basal lysozyme secretion) (ISC-enriched organoids [2]; dose 10.00 uM): −0.055; Z.CTG (standard z score) (ISC-enriched organoids [3]; dose 0.08 uM): 0.058; Dose.FC.CTG (log 2 fold change, ATP) (ISC-enriched organoids [3]; dose 0.08 uM): 0.024; Z.CTG (standard z score) (ISC-enriched organoids [3]; dose 0.40 uM): −0.289; Dose.FC.CTG (log 2 fold change, ATP) (ISC-enriched organoids [3]; dose 0.40 uM): −0.121; Z.CTG (standard z score) (ISC-enriched organoids [3]; dose 2.00 uM): −0.616; Dose.FC.CTG (log 2 fold change, ATP) (ISC-enriched organoids [3]; dose 2.00 uM): −0.258; Z.CTG (standard z score) (ISC-enriched organoids [3]; dose 10.00 uM): 0.022; Dose.FC.CTG (log 2 fold change, ATP) (ISC-enriched organoids [3]; dose 10.00 uM): 0.009
5 | VU 0364770 | – | – | – | – | – | – | – | – | – | – | – | – | – | – | – | – | – | – | – | – | Dose.FC.LYZ.S (log 2 fold change, carbachol-induced lysozyme secretion) (ISC-enriched organoids [1]; dose 0.08 uM): 0.082; Dose.FC.LYZ.S (log 2 fold change, carbachol-induced lysozyme secretion) (ISC-enriched organoids [1]; dose 0.40 uM): 0.125; Dose.FC.LYZ.S (log 2 fold change, carbachol-induced lysozyme secretion) (ISC-enriched organoids [1]; dose 2.00 uM): 0.139; Dose.FC.LYZ.S (log 2 fold change, carbachol-induced lysozyme secretion) (ISC-enriched organoids [1]; dose 10.00 uM): 0.066; Z.LYZ.NS (standard z score) (ISC-enriched organoids [2]; dose 0.08 uM): 1.350; Dose.FC.LYZ.NS (log 2 fold change, basal lysozyme secretion) (ISC-enriched organoids [2]; dose 0.08 uM): 0.155; Z.LYZ.NS (standard z score) (ISC-enriched organoids [2]; dose 0.40 uM): 0.736; Dose.FC.LYZ.NS (log 2 fold change, basal lysozyme secretion) (ISC-enriched organoids [2]; dose 0.40 uM): 0.085; Z.LYZ.NS (standard z score) (ISC-enriched organoids [2]; dose 2.00 uM): 1.020; Dose.FC.LYZ.NS (log 2 fold change, basal lysozyme secretion) (ISC-enriched organoids [2]; dose 2.00 uM): 0.117; Z.LYZ.NS (standard z score) (ISC-enriched organoids [2]; dose 10.00 uM): 0.884; Dose.FC.LYZ.NS (log 2 fold change, basal lysozyme secretion) (ISC-enriched organoids [2]; dose 10.00 uM): 0.102; Z.CTG (standard z score) (ISC-enriched organoids [3]; dose 0.08 uM): 0.031; Dose.FC.CTG (log 2 fold change, ATP) (ISC-enriched organoids [3]; dose 0.08 uM): 0.013; Z.CTG (standard z score) (ISC-enriched organoids [3]; dose 0.40 uM): 0.204; Dose.FC.CTG (log 2 fold change, ATP) (ISC-enriched organoids [3]; dose 0.40 uM): 0.085; Z.CTG (standard z score) (ISC-enriched organoids [3]; dose 2.00 uM): 0.199; Dose.FC.CTG (log 2 fold change, ATP) (ISC-enriched organoids [3]; dose 2.00 uM): 0.083; Z.CTG (standard z score) (ISC-enriched organoids [3]; dose 10.00 uM): −0.246; Dose.FC.CTG (log 2 fold change, ATP) (ISC-enriched organoids [3]; dose 10.00 uM): −0.103
